In publication PMC11199699 (Scientific Reports, 2024):

Tests used:
[1] = test system: T1, PSMK_RS04265 (type 3 L-KDFDH); assay: spectrophotometric NADH formation at […] nm, Lineweaver-Burk; assay type: biochemical, Phycisphaera mikurensis; conditions: 1.5 mM NAD+, 50 mM Tris-HCl pH 8.0, 30 °C
T1 construct: pQE-80L, N-terminal (His)6-tag, expressed in E. coli, Ni-NTA

[2] = test system: T2, PEH01S_RS21285 (type 2 L-KDFDH); assay: as above; assay type: biochemical, Paenibacillus ehimensis; conditions: 1.5 mM NAD+, 50 mM Tris-HCl pH 8.0, 30 °C
T2 construct: pQE-80L, N-terminal (His)6-tag, expressed in E. coli, Ni-NTA

Km [1]: 6.08 ± 0.15 mM
Km [2]: 0.529 ± 0.021 mM
Compound: C[C@H](O)[C@@H](O)CC(=O)C(=O)O [L-KDF]
